Experimental data reported in ChEMBL document CHEMBL1909294, “Translating clinical findings into knowledge in drug safety evaluation--drug induced liver injury prediction system (DILIps)” (PLoS Comput Biol, 2011).

How the values were obtained:
Hepatotoxicity [1] = tested on: Hepatotoxicity;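 for HepSE bilirubinemia: bilirubinemia hepatic side effect score drawn from the DILIps training data, a prediction system for drug-induced liver injury; call rule not given here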;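 for HepSE cholecystitis: Cholecystitis-related hepatic side effect score drawn from the DILIps (drug-induced liver injury prediction) training data set; call rule not given here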;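 for HepSE cholelithiasis: hepatic side effect score for cholelithiasis, drawn from the DILIps training data for predicting drug-induced liver injury; call rule not given here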;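 for HepSE cirrhosis: cirrhosis hepatic side effect score taken from the DILIps (drug-induced liver injury prediction) training set; call rule not given here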;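 for HepSE elevated liver function tests: hepatic side effect score for raised liver function tests, as recorded in the DILIps training set used for predicting drug-induced liver injury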; for HepSE hepatic failure: call rule not given here;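 for HepSE hepatomegaly: hepatic side effect score for hepatomegaly, taken from the training set of the DILIps drug-induced liver injury prediction system; call rule not given here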
Hepatotoxicity [2] = tested on: Hepatotoxicity; remark: listed apart in the source;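 for HepSE bilirubinemia: bilirubinemia hepatic side effect score drawn from the DILIps training data, a prediction system for drug-induced liver injury; call rule not given here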;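 for HepSE cholecystitis: Cholecystitis-related hepatic side effect score drawn from the DILIps (drug-induced liver injury prediction) training data set; call rule not given here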;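 for HepSE cholelithiasis: hepatic side effect score for cholelithiasis, drawn from the DILIps training data for predicting drug-induced liver injury; call rule not given here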;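 for HepSE cirrhosis: cirrhosis hepatic side effect score taken from the DILIps (drug-induced liver injury prediction) training set; call rule not given here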;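 for HepSE elevated liver function tests: hepatic side effect score for raised liver function tests, as recorded in the DILIps training set used for predicting drug-induced liver injury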; for HepSE hepatic failure: call rule not given here
Hepatotoxicity [3] = tested on: Hepatotoxicity; remark: listed apart in the source;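 for HepSE bilirubinemia: bilirubinemia hepatic side effect score drawn from the DILIps training data, a prediction system for drug-induced liver injury; call rule not given here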;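 for HepSE cholecystitis: Cholecystitis-related hepatic side effect score drawn from the DILIps (drug-induced liver injury prediction) training data set; call rule not given here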;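 for HepSE cholelithiasis: hepatic side effect score for cholelithiasis, drawn from the DILIps training data for predicting drug-induced liver injury; call rule not given here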;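 for HepSE cirrhosis: cirrhosis hepatic side effect score taken from the DILIps (drug-induced liver injury prediction) training set; call rule not given here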;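 for HepSE elevated liver function tests: hepatic side effect score for raised liver function tests, as recorded in the DILIps training set used for predicting drug-induced liver injury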; for HepSE hepatic failure: call rule not given here
Hepatotoxicity [4] = tested on: Hepatotoxicity; remark: listed apart in the source;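 for HepSE bilirubinemia: bilirubinemia hepatic side effect score drawn from the DILIps training data, a prediction system for drug-induced liver injury; call rule not given here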;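 for HepSE cholecystitis: Cholecystitis-related hepatic side effect score drawn from the DILIps (drug-induced liver injury prediction) training data set; call rule not given here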;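 for HepSE cholelithiasis: hepatic side effect score for cholelithiasis, drawn from the DILIps training data for predicting drug-induced liver injury; call rule not given here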;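 for HepSE cirrhosis: cirrhosis hepatic side effect score taken from the DILIps (drug-induced liver injury prediction) training set; call rule not given here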;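 for HepSE elevated liver function tests: hepatic side effect score for raised liver function tests, as recorded in the DILIps training set used for predicting drug-induced liver injury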; for HepSE hepatic failure: call rule not given here
Hepatotoxicity [5] = tested on: Hepatotoxicity; remark: listed apart in the source; for HepSE hepatic failure: call rule not given here
Hepatotoxicity [6] = tested on: Hepatotoxicity; remark: listed apart in the source; for HepSE hepatic failure: call rule not given here
Hepatotoxicity [7] = tested on: Hepatotoxicity; remark: listed apart in the source
Hepatotoxicity [8] = tested on: Hepatotoxicity; remark: listed apart in the source
Hepatotoxicity [9] = tested on: Hepatotoxicity; remark: listed apart in the source
Hepatotoxicity [10] = tested on: Hepatotoxicity; remark: listed apart in the source
Hepatotoxicity [11] = tested on: Hepatotoxicity; remark: listed apart in the source
Hepatotoxicity [12] = tested on: Hepatotoxicity; remark: listed apart in the source
Hepatotoxicity [13] = tested on: Hepatotoxicity; remark: listed apart in the source
Hepatotoxicity [14] = tested on: Hepatotoxicity; remark: listed apart in the source

Structure (SMILES)	HepSE_bilirubinemia (Hepatotoxicity [1])	HepSE_cholecystitis (Hepatotoxicity [2])	HepSE_cholelithiasis (Hepatotoxicity [3])	HepSE_cirrhosis (Hepatotoxicity [4])	HepSE_elevated liver function tests (Hepatotoxicity [5])	HepSE_hepatic failure (Hepatotoxicity [6])	HepSE_hepatic necrosis (Hepatotoxicity [7])	HepSE_hepatitis (Hepatotoxicity [8])	HepSE_hepatomegaly (Hepatotoxicity [9])	HepSE_jaundice (Hepatotoxicity [10])	HepSE_liver disease (Hepatotoxicity [11])	HepSE_liver fatty (Hepatotoxicity [12])	HepSE_liver function tests abnormal (Hepatotoxicity [13])	HepSE_Combined Scores (Hepatotoxicity [14])
N[C@@H](Cc1c[nH]c2ccccc12)C(=O)O [TRYPTOPHAN]	0	0	0	0	0	0	0	0	0	0	0	0	0	0
CCCCCCCC(=O)CC[C@@H]1[C@@H](C/C=C\CCCC(=O)O)[C@@H](O)C[C@H]1O [UNOPROSTONE]	0	0	0	0	0	0	0	0	0	0	0	0	0	0
C[C@H](CCC(=O)O)[C@H]1CC[C@H]2[C@@H]3[C@@H](O)C[C@@H]4C[C@H](O)CC[C@]4(C)[C@H]3CC[C@]12C [URSODIOL]	0	1	0	0	0	0	0	0	0	0	0	0	0	1
CC(C)[C@H](N)C(=O)OCCOCn1cnc2c(=O)[nH]c(N)nc21 [VALACYCLOVIR]	0	0	0	0	0	0	0	1	0	0	0	0	0	1
Cc1onc(-c2ccccc2)c1-c1ccc(S(N)(=O)=O)cc1 [VALDECOXIB]	0	0	1	0	0	0	0	1	0	0	0	0	0	2
CC(C)[C@H](N)C(=O)OCC(CO)OCn1cnc2c(=O)nc(N)[nH]c21 (some centres undefined) [VALGANCICLOVIR]	0	0	0	0	0	0	0	1	0	1	0	0	0	2
CCCCC(=O)OCC(=O)[C@]1(O)Cc2c(O)c3c(c(O)c2[C@@H](O[C@H]2C[C@H](NC(=O)C(F)(F)F)[C@H](O)[C@H](C)O2)C1)C(=O)c1c(OC)cccc1C3=O [VALRUBICIN]	0	0	0	0	0	0	0	0	0	0	0	0	0	0
CN[C@H](CC(C)C)C(=O)N[C@H]1C(=O)N[C@@H](CC(N)=O)C(=O)N[C@H]2C(=O)N[C@H]3C(=O)N[C@H](C(=O)N[C@H](C(=O)O)c4cc(O)cc(O)c4-c4cc3ccc4O)[C@H](O)c3ccc(c(Cl)c3)Oc3cc2cc(c3O[C@@H]2O[C@H](CO)[C@@H](O)[C@H](O)[C@H]2O[C@H]2C[C@](C)(N)[C@H](O)[C@H](C)O2)Oc2ccc(cc2Cl)[C@H]1O [VANCOMYCIN]	0	0	0	0	0	0	0	0	0	0	0	0	0	0
c1cnc2cc3c(cc2n1)[C@@H]1CNC[C@H]3C1 [VARENICLINE]	0	0	0	0	0	0	0	0	0	0	0	0	1	1
CC(=O)O[C@H]1C[C@@H]2CC[C@@H]3[C@H](CC[C@@]4(C)[C@H]3C[C@H]([N+]3(C)CCCCC3)[C@@H]4OC(C)=O)[C@@]2(C)C[C@@H]1N1CCCCC1 [VECURONIUM]	0	0	0	0	0	0	0	0	0	0	0	0	0	0
COc1ccc(C(CN(C)C)C2(O)CCCCC2)cc1 (centres undefined) [VENLAFAXINE]	1	1	1	1	0	0	0	1	0	1	0	1	0	7
C=CC(N)CCC(=O)O (centres undefined) [VIGABATRIN]	0	0	0	0	0	0	0	0	0	0	0	0	0	0
CC[C@]1(O)C[C@@H]2CN(CCc3c([nH]c4ccccc34)[C@@](C(=O)OC)(c3cc4c(cc3OC)N(C)[C@H]3[C@@](O)(C(=O)OC)[C@H](OC(C)=O)[C@]5(CC)C=CCN6CC[C@]43[C@@H]65)C2)C1 [VINBLASTINE]	0	0	0	0	0	0	0	0	0	0	0	0	0	0
CC[C@]1(O)C[C@H]2CN(CCc3c([nH]c4ccccc34)[C@@](C(=O)OC)(c3cc4c(cc3OC)N(C=O)[C@H]3[C@@](O)(C(=O)OC)[C@H](OC(C)=O)[C@]5(CC)C=CCN6CC[C@]43[C@@H]65)C2)C1 [VINCRISTINE]	0	0	0	0	0	0	0	0	0	0	0	0	0	0
CCC1=C[C@@H]2CN(C1)Cc1c([nH]c3ccccc13)[C@@](C(=O)OC)(c1cc3c(cc1OC)N(C)[C@H]1[C@@](O)(C(=O)OC)[C@H](OC(C)=O)[C@]4(CC)C=CCN5CC[C@]31[C@@H]54)C2 [VINORELBINE]	0	0	0	0	0	0	0	0	0	0	0	0	0	0
C[C@@H](c1ncncc1F)[C@](O)(Cn1cncn1)c1ccc(F)cc1F [VORICONAZOLE]	1	1	1	0	1	1	0	1	1	1	1	0	1	10
